Experimental findings from patent publication US20230091225A1, “Bifunctional chimeric heterocyclic compounds for targeted degradation of androgen receptors and use thereof” (HINOVA PHARMACEUTICALS INC., priority 2019, published 2023) are described below.

One test has as its system LNCaP/AR cells. Put plainly: Inhibition of proliferation of LNCaP/AR prostate cancer cells (CCK-8). It is filed as cell-based.
The next test concerns the target T1, androgen receptor (AR) (Homo sapiens, UniProt P10275).
T1 sequence (P10275 1-920): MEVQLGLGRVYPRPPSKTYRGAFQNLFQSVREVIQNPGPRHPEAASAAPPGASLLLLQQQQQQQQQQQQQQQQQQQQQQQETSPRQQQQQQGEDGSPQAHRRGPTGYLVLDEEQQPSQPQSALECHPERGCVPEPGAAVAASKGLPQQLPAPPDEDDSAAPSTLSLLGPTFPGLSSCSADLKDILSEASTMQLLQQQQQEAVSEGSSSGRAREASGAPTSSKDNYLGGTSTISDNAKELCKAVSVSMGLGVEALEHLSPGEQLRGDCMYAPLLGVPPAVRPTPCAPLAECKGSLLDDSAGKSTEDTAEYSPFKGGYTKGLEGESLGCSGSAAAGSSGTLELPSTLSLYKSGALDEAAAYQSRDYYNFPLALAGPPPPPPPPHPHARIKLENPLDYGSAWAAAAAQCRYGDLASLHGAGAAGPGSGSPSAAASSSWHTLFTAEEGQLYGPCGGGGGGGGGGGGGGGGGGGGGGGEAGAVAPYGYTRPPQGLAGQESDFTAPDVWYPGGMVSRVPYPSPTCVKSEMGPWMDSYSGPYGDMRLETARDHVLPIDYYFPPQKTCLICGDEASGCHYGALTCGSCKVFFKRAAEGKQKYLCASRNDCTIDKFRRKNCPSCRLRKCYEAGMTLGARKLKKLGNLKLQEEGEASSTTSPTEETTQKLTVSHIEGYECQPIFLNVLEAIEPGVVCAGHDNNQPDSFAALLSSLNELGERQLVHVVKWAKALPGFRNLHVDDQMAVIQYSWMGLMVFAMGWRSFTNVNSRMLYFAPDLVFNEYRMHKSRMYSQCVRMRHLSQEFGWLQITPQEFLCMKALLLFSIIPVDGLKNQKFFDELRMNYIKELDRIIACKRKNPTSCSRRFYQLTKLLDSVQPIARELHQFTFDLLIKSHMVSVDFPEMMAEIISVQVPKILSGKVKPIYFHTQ
Put plainly: Degradation of androgen receptor (AR) protein in VCaP cells by ELISA. Type of test: cell-based. The note with it: for inhibition at 0.1 µM: percentage of degraded AR at 100 nM, VCaP cells, 16 h, ELISA, read-out: % degradation. (In general: ELISA stands for enzyme-linked immunosorbent assay.)

The mark [1] stands for this setting: 144 h, proliferation of LNCap/AR cells, 6 days, CCK-8, read-out: IC50.

By IC50 is commonly meant the concentration that inhibits the measured activity by half.

Structures are written as SMILES. Read-outs that look alike come from different tables or passages of the source.

Turning to `CC(=O)O[C@@H]1C[C@@H](C(=O)N[C@@H](C)c2ccc(-c3scnc3C)cc2)N(C(=O)[C@@H](NC(=O)COCCCCCNc2ccc(NC(=O)N[C@H]3C(C)(C)[C@H](Oc4ccc(C#N)c(Cl)c4)C3(C)C)cc2)C(C)(C)C)C1` [Compound 1, (3R,5S)-1-((S)-2-(2-((5-((4-(3-((1R,3R)-3-(3-chloro-4-cyanophenoxy)-2,2,4,4-tetramethylcyclobutyl)ureido)phenyl)amino)pentyl)oxy)acetylamino)-3,3-dimethylbutyryl)-5-(((S)-1-(4-(4-methylthiazol-5-yl))phenyl)ethyl)carbamoyl) pyrrolidin-3-yl acetate], in the test on LNCaP/AR cells (setting [1]), the IC50 was over 1000 nM. Further, the inhibition at 0.1 µM on androgen receptor (AR) is under 25%.
Take `Cc1ncsc1-c1ccc([C@H](C)NC(=O)C2C[C@@H](O)CN2C(=O)[C@@H](NC(=O)COCCN2CCN(c3ccc4c(c3)CN([C@H]3C(C)(C)[C@H](Oc5ccc(C#N)c(Cl)c5)C3(C)C)C4=O)CC2)C(C)(C)C)cc1` (stereo partly drawn) [Compound 3, (2S,4R)-1-((S)-2-(2-(2-(4-(2-((1R,3R)-3-(3-chloro-4-cyanophenoxy)-2,2,4,4-tetramethylcyclobutyl)-1-oxoisoindolin-5-yl)piperazin-1-yl)ethoxy)acetylamino)-3,3-dimethylbutyryl)-4-hydroxy-N-((S)-1-(4-(4-methylthiazol-5-yl)phenyl)ethyl)pyrrolidine-2-carboxamide]: in the test on LNCaP/AR cells (setting [1]), the IC50 was in the range of 100 to 500 nM. For the same compound, the inhibition at 0.1 µM at androgen receptor (AR) is 50 to 79%.
Take `CC(=O)O[C@@H]1C[C@H](C(=O)N[C@@H](C)c2ccc(-c3scnc3C)cc2)N(C(=O)[C@@H](NC(=O)COCCCCC#Cc2ccc3c(c2)C(=O)N(C2C(C)(C)C(Oc4ccc(C#N)c(Cl)c4)C2(C)C)C3)C(C)(C)C)C1` (stereo partly drawn) [Compound 4, (3R,5R)-1-((S)-2-(2-((6-(2-((1R,3R)-3-(3-chloro-4-cyanophenoxy)-2,2,4,4-tetramethylcyclobutyl)-3-oxoisoindolin-5-yl)hex-5-yn-1-yl)oxy)acetylamino)-3,3-dimethylbutyryl)-5-(((S)-1-(4-(4-methylthiazol-5-yl)phenyl)ethyl)carbamoyl) pyrrolidin-3-yl acetate]: the IC50 with LNCaP/AR cells (proliferation of LNCap/AR cells, 6 days, CCK-8, read-out: IC50) was under 100 nM. Further, the “% degradation” value on androgen receptor (AR) is recorded as “C (key: A: >80%; B: 79%-50%; C: 49%-25%; D: <25%)”.
The compound `CC(=O)O[C@@H]1C[C@@H](C(=O)N[C@@H](C)c2ccc(-c3scnc3C)cc2)N(C(=O)[C@@H](NC(=O)COCCCCCNc2ccc3c(c2)C(=O)N([C@H]2C(C)(C)[C@H](Oc4ccc(C#N)c(Cl)c4)C2(C)C)C3)C(C)(C)C)C1` [Compound 6, (3R,5S)-1-((S)-2-(2-((5-((2-((1R,3R)-3-(3-chloro-4-cyanophenoxy)-2,2,4,4-tetramethylcyclobutyl)-3-oxoisoindolin-5-yl)amino)pentyl)oxy)acetylamino)-3,3-dimethylbutyryl)-5-(((S)-1-(4-(4-methylthiazol-5)-yl)phenyl)ethyl)carbamoyl) pyrrolidin-3-yl acetate] yielded an IC50 with LNCaP/AR cells (LNCaP/AR, 144 h) of under 100 nM. The inhibition at 0.1 µM on androgen receptor (AR) is 50 to 79%.
On to `Cc1ncsc1-c1ccc([C@H](C)NC(=O)[C@@H]2C[C@@H](O)CN2C(=O)[C@@H](NC(=O)COCCCCCNc2ccc3c(c2)C(=O)N([C@H]2C(C)(C)[C@H](Oc4ccc(C#N)c(Cl)c4)C2(C)C)C3)C(C)(C)C)cc1` [Compound 7, (2S,4R)-1-((S)-2-(2-((5-((2-((1R,3R)-3-(3-chloro-4-cyanophenoxy)-2,2,4,4-tetramethylcyclobutyl)-3-oxoisoindolin-5-yl)amino)pentyl)oxy)acetylamino)-3,3-dimethylbutyryl)-4-hydroxy-N-((S)-1-(4-(4-methylthiazol-5-yl)phenyl)ethyl) pyrrolidine-2-carboxamide], for which the half-inhibitory concentration (IC50) in the test with LNCaP/AR cells (setting [1]) was under 100 nM. The inhibition at 0.1 µM at androgen receptor (AR) was 50 to 79%.
